The values that follow come from patent publication US20250002526A1, “PHARMACEUTICAL COMPOSITION HAVING ANTI-CANCER IMMUNOSTIMULATING EFFECT AND/OR IMMUNE CHECKPOINT INHIBITION POTENTIATING EFFECT” (KYUSHU UNIVERSITY, NATIONAL UNIVERSITY CORPORATION, priority 2021, published 2025).

The structures appear in SMILES notation. Like-named read-outs stand apart in the source and are kept apart here.

Experiment [1] deals with T1, recombinant human SULT2B1b protein (Homo sapiens, UniProt O00204).
T1 sequence (O00204 1-365): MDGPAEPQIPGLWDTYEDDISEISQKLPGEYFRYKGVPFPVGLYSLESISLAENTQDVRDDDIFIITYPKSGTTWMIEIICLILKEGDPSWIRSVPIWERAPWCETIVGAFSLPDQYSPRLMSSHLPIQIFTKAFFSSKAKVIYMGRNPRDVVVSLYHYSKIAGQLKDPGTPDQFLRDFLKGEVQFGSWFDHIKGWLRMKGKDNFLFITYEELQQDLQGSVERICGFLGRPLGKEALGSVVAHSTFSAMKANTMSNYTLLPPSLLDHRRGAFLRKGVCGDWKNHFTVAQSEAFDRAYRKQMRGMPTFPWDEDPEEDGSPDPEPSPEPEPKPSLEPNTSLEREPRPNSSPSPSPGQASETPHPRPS
Put plainly: SULT assay (in vitro SULT2B1b enzymatic activity measurement). The following applies: for activity at 200 µM: test compound 200 μM, relative to DMSO control (100%), read-out: in vitro SULT2B1b assay % activity at 200 μM. The experiment is classed as biochemical. How it is done:
For screening for a SULT2B1b inhibitor, enzymatic activity measurement for SULT2B1b was carried out by a method described in a previous report (NPL 2) with slight modifications.
The reaction solution (50 μl) was composed of 1 to 5 μg of recombinant human SULT2B1b protein, 10 μM [^3H]cholesterol (approximately 4,000 dpm/pmol), 10 mM Tris-HCl (pH 7.5, containing 5 mM MgCl2) containing 0.1 mM 3′-phosphoadenosine 5′-phosphosulfate (PAPS), 0.2 mM 2-hydroxypropyl-β-cyclodextrin, and 5% (v/v) ethanol. Recombinant human SULT2B1b protein was pre-incubated with 1 μl of a test compound (final concentration: 40 or 200 μM) or DMSO (control) at room temperature for 15 minutes, 2 mM PAPS (2.5 μl) was then added to initiate reaction, the resultant was reacted at 37° C. for 15 minutes, and 0.8 ml of ethanol was added to terminate the reaction.
The solution after the reaction was subjected to thin-layer chromatography (TLC) for separation, and then to a liquid scintillation counter to quantify radiolabeled CS.
From the percentage to the amount ([…]) of radiolabeled CS generated through reaction in the absence of the test compound (DMSO) (control), the SULT2B1b activity (% activity) of SULT2B1b protein in the presence of the test compound was evaluated, and the effect of the test compound to inhibit SULT2B1b-mediated CS production (CS production inhibitory effect) was evaluated.
In enzyme assay, SULT assay was performed with use of cholenoic acid as a compound to be tested at different cholesterol and PAPS concentrations (wherein 0.5 to 1 μg of recombinant human SULT2B1b protein was used, the preincubation time and reaction time were each 10 minutes), and the results were fitted to the Michaelis-Menten equation by using Prism 9 (GraphPad Software, Inc.) to perform enzyme kinetic analysis for the inhibition by cholenoic acid.
SULT assay was performed for the compounds as test compounds by the method described in (14) of “II. Experimental procedure” in Experiment Example 1 to evaluate the SULT2B1b inhibitory effects of the compounds.

The subject of experiment [2] is SULT2B1b-mediated CS production in E0771-SULT cells. Put plainly: CS production inhibitory effect in E0771-SULT cells (LC/MS/MS quantification of CS). It is filed as cell-based, mouse. Particulars: Mus musculus; for activity at 10 µM / activity at 20 µM: 24 h; for activity at 10 µM: relative to control (100%); for activity at 20 µM: read-out: CS production % activity at 20 μM, E0771-SULT cells, 24 hours, test compound 20 μM, relative to control without compound (100%); for IC50: read-out: IC50 value (CS production). How it is done: CS in each human cancer tissue sample was quantified by a method described in NPL 2. To monitor the amounts of CS and/or oxysterol generated in E0771, 3LL, EG.7-OVA, and MC38 cells irrespective of the presence or absence of SULT2B1b expression, cells of each type were seeded in a 6-well plate at 5×10^5 cells/well, and the culture supernatant and cell pellet were collected after 24 hours. Subsequently, deuterium-labeled internal standard (IS) compounds (d7-CS [[…]] and d6-25-hydroxycholesterol) were added to fractions of the culture supernatant and cell pellet, each of which was subjected to extraction with 1 mL of extraction solvent (methanol/chloroform/water=5:2:2 [v/v/v]) to extract CS and oxysterol from the culture supernatant or cell pellet.
Each sample was vigorously mixed with a vortex for 1 minute, and then ultrasonicated for 5 minutes. Thereafter, the sample was centrifuged at 16,000×g and 4° C. for 5 minutes, and the supernatant (700 μl) was collected in a clean tube. Into this, 235 μl of chloroform and 155 μl of water were added and mixed, and the resultant was then subjected to vortexing followed by centrifugation to separate into an aqueous layer and an organic layer. Subsequently, 200 μl of the lowermost layer was dried under a nitrogen flow.
The dried sample was dissolved in 50 μl of methanol, and CS and oxysterol therein were quantified by liquid chromatography-tandem mass spectrometry (LC/MS/MS) with a triple quadrupole mass spectrometer (LCMS-8060; Shimadzu Corporation) equipped with an electrospray ionization (ESI) ion source in a multiple reaction monitoring (MRM) mode.
• Column: Inertsil ODS-4 (2.1×150 mm; particle size: 3 μm; GL Sciences Inc.) • Column temperature: 40° C. • Flow rate: 0.3 ml/min • Mobile phase: (A) water/acetonitrile (1:2, v/v) containing 5 mM ammonium acetate (B) Methanol/Isopropanol (1:19, v/v) Containing 5 mM Ammonium Acetate • Gradient curve: 0 min→22 min: (B) 0%→100%, • 22 min→27 min: (B) 100%, • 27 min→27.1 min: (B) 100%→0%, • 27.1 min→30 min: (B) 0% • Injection volume: 5 μl • Mass spectrometry mode: positive and negative ion modes • Electrospray voltage: 4 kV in positive ion mode, −3.5 kV in negative ion mode • Nebulizer gas flow rate: 3.0 L/min • Drying gas flow rate: 10.0 L/min • Desolvation temperature: 250° C. • Heat block temperature: 400° C. • Detector voltage: 2.16 kV • Used were MRM mode and 2 msec of dwell time per channel.
Absolute CS and oxysterol contents were calculated from calibration curves. MRM calibration curves were prepared with chromatographic peak areas for the analytes relative to peak areas for internal standards through three times of analysis for standard solutions.
The CS production effects of test compounds (compounds 1 to 19, 21, 23, 25, and 27 to 32) were evaluated with the mouse breast cancer cell line E0771 expressing SULT2B1b (E0771-SULT cells).
Specifically, as in the above description in experimental procedure (12), E0771-SULT cells were seeded in a 6-well plate at a proportion of 5×10^5 cells/well, and cultured in the presence or absence (control) of each test compound for 24 hours. After culturing, CS generated in E0771-SULT cells was quantified by LC/MS/MS according to the description in experimental procedure (12). The CS production capacity (% activity) of cells cultured in the presence of each test compound was evaluated from the percentage relative to the CS production level (control) (100%) in E0771-SULT cells cultured in the absence of the test compound, and the CS production inhibitory effect of the test compound was evaluated.

Setting [3] is: read-out: CS production % activity at 10 μM, E0771-SULT cells, 24 hours, test compound 10 μM (Table 1).
The mark [4] stands for this setting: read-out: CS production % activity at 10 μM, E0771-SULT cells, 24 hours, third concentration column of Table 1, head again printed 10 μM.

For `C[C@H](CCC(=O)N(Cc1ccccc1)Cc1ccccc1)[C@H]1CC[C@H]2[C@@H]3CC=C4C[C@@H](OC(=O)C(F)(F)F)CC[C@]4(C)[C@H]3CC[C@]12C` [Compound 7, (3S,8S,9S,10R,13R,14S,17R)-17-((R)-5-(dibenzylamino)-5-oxopentan-2-yl)-10,13-dimethyl-2,3,4,7,8,9,10,11,12,13,14,15,16,17-tetradecahydro-1H-cyclopenta[a]phenanthren-3-yl 2,2,2-trifluoroacetate], the activity at 200 µM in experiment [1] is 6.4%. In addition, the activity at 10 µM came to 59% in experiment [2] (setting [3]) and 74.6% in experiment [2] (setting [4]). Moreover, the activity at 20 µM in experiment [2] came out at 57.8%. The IC50 in experiment [2] amounted to 17.3 µM.

For `CCCCNC(=O)CC[C@@H](C)[C@H]1CC[C@H]2[C@@H]3CC=C4C[C@@H](OC(=O)C(F)(F)F)CC[C@]4(C)[C@H]3CC[C@]12C` [Compound 8, (3S,8S,9S,10R,13R,14S,17R)-17-((R)-5-(butylamino)-5-oxopentan-2-yl)-10,13-dimethyl-2,3,4,7,8,9,10,11,12,13,14,15,16,17-tetradecahydro-1H-cyclopenta[a]phenanthren-3-yl 2,2,2-trifluoroacetate], the activity at 200 µM in experiment [1] amounted to 10.7%. Moreover, the activity at 10 µM in experiment [2] (setting [3]) amounted to 70.6%. Moreover, the activity at 10 µM in experiment [2] (setting [4]) amounted to 83.6%. Besides, in experiment [2], the activity at 20 µM was 60.2% and the IC50 turned out to be 42.5 µM.

Turning to `C[C@H](CCC(=O)N1CCOCC1)[C@H]1CC[C@H]2[C@@H]3CC=C4C[C@H](N=[N+]=[N-])CC[C@]4(C)[C@H]3CC[C@]12C` [Compound 12, (R)-4-((3R,8S,9S,10R,13R,14S,17R)-3-azido-10,13-dimethyl-2,3,4,7,8,9,10,11,12,13,14,15,16,17-tetradecahydro-1H-cyclopenta[a]phenanthren-17-yl)-1-morpholinopentan-1-one], the activity at 200 µM in experiment [1] was determined as 8.3%. In addition, the activity at 10 µM in experiment [2] (setting [3]) was found to be 98.4%.

In the case of `CC(=O)OC1CCC2(C)C(=CCC3C2CCC2(C)C(C(C)CCC(=O)O)CCC32)C1` (stereo not drawn) [Compound 17, 3-acetoxy-5-cholenoic acid], the IC50 in experiment [1] (recombinant human SULT2B1b, read-out: IC50 value (enzyme assay)) was 186 µM; in experiment [2], 7 µM. In addition, the activity at 200 µM in experiment [1] stood at 66.4%. For the same molecule, the values for the activity at 10 µM in experiment [2] (setting [3]) and in experiment [2] (setting [4]) were 43.7% and 44.9%, respectively. Further, the activity at 20 µM in experiment [2] is 52.4%.

The IC50 is the midpoint of a concentration-inhibition curve.
